Reference: patent US20070099852A1, “CUCURBITACIN COMPOUNDS” (SOUTH DAKOTA STATE UNIVERSITY, priority 2005, published 2007)
Marks after values point to notes of the source that are not given here.

Tests used:
HSC-T6 cells [1] = test: PDGF-driven proliferation of HSC-T6 cells; type: cell-based, rat; settings: HSC-T6, incubation with PDGF for 2 days; not reproducible
From the text: The proliferation assay described by Zhang et al. (Zhang et al., Acta Pharmacol. Sin. 21: 253-256, 2000), was followed to determine the proliferative effect of PDGF on HSC-T6 cells, and yielded to total cell confluency prior to the addition of PDGF to the cells. Therefore, experimental conditions were changed stepwise to reduce cell confluency. When cell concentration was reduced from the initial 10,000 to 4,000 cells/well, and FBS concentration was reduced from 10 to 2%, cell confluency reached approximately 50% prior to the addition of PDGF. […] Further modifications to the initial assay were done such as increase of period of incubation or increase of PDGF concentration. Cells incubation with PDGF for 2 days indicated some degree of proliferation (0-22%), but it was not reproducible from one trial to the other.
The experimental conditions presented by Yang et al. (Yang et al., World J. Gastroenterol. 9: 2050-2053, 2003) were also examined. It involved 1-day cell starvation in serum-free media followed by 3 h challenge with drug candidates and then 2 days incubation with PDGF in serum-free media. In our study, PDGF was added at various concentration levels to starved cells and incubation period with PDGF was increased to 2-to-3 days. However, we could not achieve a stable and significant level of cell proliferation in the presence of PDGF. […]

HepG2 cells [2] = type: cell-based, human; settings: HepG2, toxin at 4.5×10^−3 M
Experimental: The activity of two toxins was studied first on HepG2 cells—bromobenzene (BB) and CCl4. Cells were challenged with the toxins at different concentration levels. Precipitate formation was observed when BB was diluted with media prior to addition to the cells; therefore, both the precipitate and the supernatant were added separately over cells to study their toxic effect.

HSC-T6 cells [3] = test: Cucurbitacin cytotoxicity on HSC-T6 (Experiment 3); type: cell-based, rat; settings: 24 h
From the text: Cytotoxicity of all cucurbitacin analogs was additionally measured in experiment 3 (Table 8).

HSC-T6 cells [4] = test: Serum-driven HSC-T6 proliferation, Experiment 1 (4 h challenge); type: cell-based, rat; settings: for Experiment 1 anti-proliferation activity at 100 μM: HSC-T6, measured at 100 μM
Experimental: The proliferation effect of serum on HSC-T6 cells was optimized and cucurbitacin antiproliferative activity was measured. Serum contains a large number of growth factors, hormones and other nutrients, which help cells to grow and multiply. Several trials were conducted. In experiment 1, cells were challenged with cucurbitacin analogs for 4 h and then cells were grown in drug-free media for two additional days.
We established several experimental conditions such as 4 hours of incubation time with cucurbitacin, and 2 day cell incubation with fresh media after challenging with cucurbitacin (Exp. 1). Other experiments involved addition of cucurbitacin for 24 hours over starved cells (Exp. 2) vs. proliferating cells (Exp. 3), and one day incubation of cells with fresh media after challenge. […] Because of that, the challenge time was increased to 24 hours (Exp. 2 and 3).
We modified this approach. Our assay included a second control (ZC) supplemented with no serum intended to measure cucurbitacin anti-proliferation effect relative to the number of cells generated during challenge instead of the total number of cells present in each well.

HepG2 cells [5] = settings: for cytoprotection on HepG2 cells at 6.25% IC50: compound at 6.25% of its IC50, CCl4 4.5×10^−3 M; for cytoprotection on HepG2 cells at 12.5% IC50: compound at 12.5% of its IC50, CCl4 4.5×10^−3 M; for cytoprotection on HepG2 cells at 20% IC50: compound at 20% of its IC50, CCl4 4.5×10^−3 M; for cytoprotection on HepG2 cells at 50% IC50: compound at 50% of its IC50, CCl4 4.5×10^−3 M
From the text: The activity of two toxins was studied first on HepG2 cells—bromobenzene (BB) and CCl4. Cells were challenged with the toxins at different concentration levels.
Experimental conditions were standardized on silybin. Cells were challenged with CCl4 (4.5×10^−3M) in presence of silybin at various concentrations.
The ratio of IC50-to-EC50 (hereafter T/A) is also indicated in this table, which gives the margin between toxic and cytoprotective concentrations.

[6] = gradient elution of standard mixture and correlation with published data; published CHI values; cited from earlier work
[7] = Chromatographic hydrophobicity index (CHI) by RP-HPLC in buffered acetonitrile; type: physicochemical; settings: isochratic and gradient elution of standard mixture
[8] = Chromatographic hydrophobicity index (CHI) by RP-HPLC in buffered methanol; type: physicochemical; settings: isochratic and gradient elution of standard mixture
[9] = DPPH Stable Free Radical Scavenging Assay; settings: for DPPH activity at 50 μM: up to 30 minutes incubation
Experimental: Cucurbitacin antioxidant activity was studied first by the DPPH® Stable Free Radical Scavenging Assay (Cotelle et al., Free radical Biology & Medicine 20(1): 35-43, 1996). Experimental conditions were optimized on the standard compound ascorbic acid. Data indicated 30% activity at 50 μM concentration, and 100% activity at 100 μM for ascorbic acid. While the original assay required 10 minutes incubation time for the reaction to occur, this time was increased up to 30 minutes in case cucurbitacin were reacting slower than other reagents.

[10] = ABTS Radical Cation Decolorization Assay; settings: 50 μM, 100 μM, and 1.8 mM; up to 2 hours
Experimental: Cucurbitacin B activity was monitored at 50 μM, 100 μM, and 1.8 mM. The time interval was expanded up to 2 hours in case cucurbitacin B was reacting slowly.

PDGF
degree of proliferation (HSC-T6 cells [1]): 0-22%

ClC(Cl)(Cl)Cl [CCl4]
cell viability (HepG2 cells [2]): 40%-50%

COc1cc(C2Oc3cc([C@H]4Oc5cc(O)cc(O)c5C(=O)[C@@H]4O)ccc3OC2CO)ccc1O (some centres unmarked) [Silybin, reference compound]
Experiment 3 IC50 (μM, T) (HSC-T6 cells [3]): non | Experiment 1 anti-proliferation activity at 100 μM (HSC-T6 cells [4]): ˜20% ^a | cell growth with silybin alone (HepG2 cells [5]; HepG2, silybin alone, 14 to 200 μM): up to 125% | toxicity of silybin alone on HepG2 cells (HepG2 cells [5]; silybin alone, absence of CCl4, 14 to 200 μM (FIG. 4)): no toxicity

CC(=O)c1ccccc1 [Acetophenone (21), acetophenone]
CHIACN^c (standard compounds) [6]: 64.90 | CHIACN^b (standard compounds) [7]: 61.93 ± 0.05 | CHIMeOH^b (standard compounds) [8]: 52.47 ± 0.05

O=C1O[C@H]([C@@H](O)CO)C(O)=C1O [ascorbic acid]
DPPH activity at 50 μM [9]: 30% | DPPH activity at 100 μM ([9]; 100 μM): 100%

Cn1c(=O)c2nc(-c3ccccc3)[nH]c2n(C)c1=O [Ph-theophylline (27), phenyltheophylline]
CHIACN^c (standard compounds) [6]: 52.04 | CHIMeOH^b (standard compounds) [8]: 61.61 ± 0.04

CCCC(=O)c1ccccc1 [Butyrophenone (24), butyrophenone]
CHIACN^c (standard compounds) [6]: 88.49 | CHIACN^b (standard compounds) [7]: 79.32 ± 0.14 | CHIMeOH^b (standard compounds) [8]: 66.79 ± 0.05

CC(=O)OC(C)(C)/C=C/C(=O)[C@](C)(O)[C@H]1[C@H](O)C[C@@]2(C)[C@@H]3CC=C4[C@H](C[C@H](O)C(=O)C4(C)C)[C@]3(C)C(=O)C[C@]12C [B, cucurbitacin B]
cytoprotection on HepG2 cells at 6.25% IC50 (HepG2 cells [5]): 12.45 ± 1.11 | cytoprotection on HepG2 cells at 12.5% IC50 (HepG2 cells [5]): 25.25 ± 1.36 | cytoprotection on HepG2 cells at 20% IC50 (HepG2 cells [5]): 34.92 ± 2.76 | cytoprotection on HepG2 cells at 50% IC50 (HepG2 cells [5]): 60.01 ± 0.80 | DPPH activity at 50 μM [9]: did not indicate any activity | ABTS activity [10]: No activity

Nc1ccccc1 [Aniline (28), aniline]
CHIMeOH^b (standard compounds) [8]: 29.94 ± 0.05

CC(=O)OC(C)(C)/C=C/C(=O)[C@](C)(O)[C@H]1[C@H](O)C[C@@]2(C)[C@@H]3CC=C4[C@@H](C=C(O[C@@H]5O[C@H](CO)[C@@H](O)[C@H](O)[C@H]5O)C(=O)C4(C)C)[C@]3(C)C(=O)C[C@]12C [E-Gluc, cucurbitacin E glucoside]
Experiment 1 anti-proliferation activity at 100 μM (HSC-T6 cells [4]): ˜46% ^a | cytoprotection on HepG2 cells at 6.25% IC50 (HepG2 cells [5]): −2.36 ± 1.08 | cytoprotection on HepG2 cells at 12.5% IC50 (HepG2 cells [5]): 17.96 ± 1.14 | cytoprotection on HepG2 cells at 20% IC50 (HepG2 cells [5]): 49.44 ± 0.29 | cytoprotection on HepG2 cells at 50% IC50 (HepG2 cells [5]): 33.92 ± 2.92

c1ccc2[nH]ccc2c1 [Indole (22), indole]
CHIACN^c (standard compounds) [6]: 69.15 | CHIACN^b (standard compounds) [7]: 67.73 + 0.13

CC(C)(O)/C=C/C(=O)[C@](C)(O)[C@H]1[C@H](O)C[C@@]2(C)[C@@H]3CC=C4[C@@H](C=C(O)C(=O)C4(C)C)[C@]3(C)C(=O)C[C@]12C [I, cucurbitacin I]
cytoprotection on HepG2 cells at 6.25% IC50 (HepG2 cells [5]): 4.55 ± 0.64 | cytoprotection on HepG2 cells at 12.5% IC50 (HepG2 cells [5]): 17.50 ± 1.32 | cytoprotection on HepG2 cells at 20% IC50 (HepG2 cells [5]): 50.09 ± 1.02 | cytoprotection on HepG2 cells at 50% IC50 (HepG2 cells [5]): 54.75 ± 0.29

CCCOC1=CC2C(=CCC3C2(C)C(=O)CC2(C)C(C(C)(O)C(=O)C=CC(C)(C)O)C(O)CC32C)C(C)(C)C1=O (centres unmarked) [I-nPr, cucurbitacin I-nPr]
Experiment 1 anti-proliferation activity at 2-6 μM (HSC-T6 cells [4]; HSC-T6, measured at 2-6 μM): ˜18% ^b

CCCCC(=O)c1ccccc1 [Valerophenone (25), valerophenone]
CHIACN^c (standard compounds) [6]: 97.67 | CHIACN^b (standard compounds) [7]: 86.66 ± 0.08 | CHIMeOH^b (standard compounds) [8]: 73.05 + 0.12

COc1cc2c(c(OC)c1OC)-c1ccc(OC)c(=O)cc1[C@@H](NC(C)=O)CC2 [Colchicine (26), colchicine]
CHIACN^c (standard compounds) [6]: 41.37 | CHIMeOH^b (standard compounds) [8]: 57.56 + 0.04

cucurbitacin E
cytoprotection on HepG2 cells at 6.25% IC50 (HepG2 cells [5]): 12.41 ± 0.78 | cytoprotection on HepG2 cells at 12.5% IC50 (HepG2 cells [5]): 21.72 ± 0.75 | cytoprotection on HepG2 cells at 20% IC50 (HepG2 cells [5]): 49.21 ± 1.73 | cytoprotection on HepG2 cells at 50% IC50 (HepG2 cells [5]): 80.55 ± 6.80

c1ccc2[nH]cnc2c1 [Benzimidazole (20), benzimidazole]
CHIACN^c (standard compounds) [6]: 30.71 | CHIACN^b (standard compounds) [7]: 43.18 ± 0.12 | CHIMeOH^b (standard compounds) [8]: 41.07 ± 0.04

CC(C)(O)/C=C/C(=O)[C@](C)(O)C1[C@H](O)C[C@@]2(C)C3CC=C4C(C=C(O[C@@H]5O[C@H](CO)[C@@H](O)[C@H](O)[C@H]5O)C(=O)C4(C)C)[C@]3(C)C(=O)C[C@]12C (some centres unmarked) [I-Gluc, cucurbitacin I glucoside]
Experiment 1 anti-proliferation activity at 100 μM (HSC-T6 cells [4]): ˜20% ^a

CCC(=O)c1ccccc1 [Propiophenone (23), propiophenone]
CHIACN^c (standard compounds) [6]: 78.41 | CHIACN^b (standard compounds) [7]: 71.72 + 0.15 | CHIMeOH^b (standard compounds) [8]: 60.41 + 0.04

Brc1ccccc1 [Bromobenzene (29), bromobenzene]
CHIMeOH^b (standard compounds) [8]: 69.43 + 0.07

CC(C)OC1=CC2C(=CCC3C2(C)C(=O)CC2(C)C(C(C)(O)C(=O)C=CC(C)(C)O)C(O)CC32C)C(C)(C)C1=O (centres unmarked) [I-iPr]
cytoprotection on HepG2 cells at 6.25% IC50 (HepG2 cells [5]): −17.10 ± 1.54 | cytoprotection on HepG2 cells at 12.5% IC50 (HepG2 cells [5]): 4.15 ± 0.48 | cytoprotection on HepG2 cells at 20% IC50 (HepG2 cells [5]): 18.69 ± 0.13 | cytoprotection on HepG2 cells at 50% IC50 (HepG2 cells [5]): 41.73 ± 2.06

Cn1c(=O)c2[nH]cnc2n(C)c1=O [Theophylline (19), theophylline]
CHIACN^c (standard compounds) [6]: 15.76 | CHIACN^b (standard compounds) [7]: 32.63 ± 0.07 | CHIMeOH^b (standard compounds) [8]: 25.76 ± 0.05
